# Test results as given in article PMC7180948, “New Insights into 4-Anilinoquinazolines as Inhibitors of Cardiac Troponin I–Interacting Kinase (TNNi3K)” (Molecules, 2020).
# How the values were obtained:
# Experiment in all cases: biochemical
# Set-up in all cases: KINOMEscan competition binding panel (Eurofins DiscoverX), single concentration, % inhibition
# Conditions in all cases: read-out: 7 at 1 µM % inhibition
# ITK = ITK (Homo sapiens, UniProt Q08881)
# Description: (§1) KinomeScan® Assay on 7 and 15 was performed as previously described by EuroFins DiscoverX [24]. GSK114 (7) and 15 were submitted for a KINOMEscan® assay to explore the selectivity profile across >400 human kinases at a compound concentration of 1 µM. […] GSK114 (7) is a narrow-spectrum TNNi3K inhibitor but has some potent off-targets including GAK which has been previously reported for this chemotype. […] If utilized together this set of compounds could be useful to investigate TNNi3K biology.
# SGK3 = SGK3 (Homo sapiens, UniProt Q96BR1)
# Description: as §1
# TLK2 = TLK2 (Homo sapiens, UniProt Q86UE8)
# TLK2, sequence (Q86UE8 whole entry): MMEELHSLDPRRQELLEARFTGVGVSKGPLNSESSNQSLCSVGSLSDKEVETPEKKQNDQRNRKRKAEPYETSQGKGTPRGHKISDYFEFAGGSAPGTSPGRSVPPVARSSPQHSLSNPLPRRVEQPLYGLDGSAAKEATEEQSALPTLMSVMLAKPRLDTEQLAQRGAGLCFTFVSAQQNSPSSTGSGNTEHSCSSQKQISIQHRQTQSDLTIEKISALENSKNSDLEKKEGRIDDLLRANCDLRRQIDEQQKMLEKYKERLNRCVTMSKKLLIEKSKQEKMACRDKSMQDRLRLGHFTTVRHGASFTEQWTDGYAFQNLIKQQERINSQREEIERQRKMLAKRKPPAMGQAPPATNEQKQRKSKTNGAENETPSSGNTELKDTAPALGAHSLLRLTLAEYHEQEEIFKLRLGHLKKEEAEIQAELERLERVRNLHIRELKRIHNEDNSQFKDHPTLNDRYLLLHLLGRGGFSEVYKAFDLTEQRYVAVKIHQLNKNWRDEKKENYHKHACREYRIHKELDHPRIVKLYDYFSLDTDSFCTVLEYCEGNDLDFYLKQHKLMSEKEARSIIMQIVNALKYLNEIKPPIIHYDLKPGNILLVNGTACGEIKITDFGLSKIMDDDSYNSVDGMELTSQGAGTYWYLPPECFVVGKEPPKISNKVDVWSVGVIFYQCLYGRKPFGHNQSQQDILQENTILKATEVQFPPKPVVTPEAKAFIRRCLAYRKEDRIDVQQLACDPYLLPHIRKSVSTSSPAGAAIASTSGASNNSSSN
# Description: as §1
# PAK4 = PAK4 (Homo sapiens, UniProt O96013)
# Description: as §1
# CDKL2 = CDKL2 (Homo sapiens, UniProt Q92772)
# Description: as §1
# EGFR(S752-I759del) = EGFR(S752-I759del) (Homo sapiens, UniProt P00533, DEL752-759)
# Description: as §1
# KIT(V559D,T670I) = KIT(V559D,T670I) (Homo sapiens, UniProt P10721, T670I/V559D)
# KIT(V559D,T670I), sequence (P10721 whole entry V559D/T670I): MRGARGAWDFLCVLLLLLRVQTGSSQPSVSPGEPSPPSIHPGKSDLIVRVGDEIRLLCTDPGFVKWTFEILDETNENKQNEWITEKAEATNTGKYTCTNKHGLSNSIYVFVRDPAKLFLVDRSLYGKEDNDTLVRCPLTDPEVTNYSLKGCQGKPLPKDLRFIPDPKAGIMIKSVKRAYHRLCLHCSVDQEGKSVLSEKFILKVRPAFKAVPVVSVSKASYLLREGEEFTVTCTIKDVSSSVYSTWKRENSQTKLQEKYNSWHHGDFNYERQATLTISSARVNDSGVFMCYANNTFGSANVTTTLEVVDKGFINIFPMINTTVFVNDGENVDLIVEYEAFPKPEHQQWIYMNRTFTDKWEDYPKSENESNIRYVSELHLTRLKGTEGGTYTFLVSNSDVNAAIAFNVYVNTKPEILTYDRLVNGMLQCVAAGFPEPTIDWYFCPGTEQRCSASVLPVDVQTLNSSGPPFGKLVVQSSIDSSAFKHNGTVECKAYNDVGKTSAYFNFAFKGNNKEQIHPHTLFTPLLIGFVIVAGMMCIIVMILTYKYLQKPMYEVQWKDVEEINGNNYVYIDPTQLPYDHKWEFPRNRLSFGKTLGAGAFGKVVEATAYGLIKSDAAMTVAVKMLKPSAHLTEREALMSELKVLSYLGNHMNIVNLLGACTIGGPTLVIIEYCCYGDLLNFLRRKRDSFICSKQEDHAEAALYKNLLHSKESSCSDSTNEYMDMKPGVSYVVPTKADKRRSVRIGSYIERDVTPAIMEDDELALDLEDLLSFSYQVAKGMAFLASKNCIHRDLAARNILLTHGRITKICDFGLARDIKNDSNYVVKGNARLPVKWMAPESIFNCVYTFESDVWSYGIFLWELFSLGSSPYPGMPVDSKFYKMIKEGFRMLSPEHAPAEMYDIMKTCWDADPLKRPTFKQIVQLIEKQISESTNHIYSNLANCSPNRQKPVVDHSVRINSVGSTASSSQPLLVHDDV
# Description: as §1
# KIT(V559D,V654A) = KIT(V559D,V654A) (Homo sapiens, UniProt P10721, V559D/V654A)
# Description: as §1
# PRKCE = PRKCE (Homo sapiens, UniProt Q02156)
# Description: as §1
# BTK = BTK (Homo sapiens, UniProt Q06187)
# Description: as §1
# CSF1R-autoinhibited = CSF1R-autoinhibited (Homo sapiens, UniProt P07333)
# Description: as §1
# ULK1 = ULK1 (Homo sapiens, UniProt O75385)
# ULK1, sequence (O75385 whole entry): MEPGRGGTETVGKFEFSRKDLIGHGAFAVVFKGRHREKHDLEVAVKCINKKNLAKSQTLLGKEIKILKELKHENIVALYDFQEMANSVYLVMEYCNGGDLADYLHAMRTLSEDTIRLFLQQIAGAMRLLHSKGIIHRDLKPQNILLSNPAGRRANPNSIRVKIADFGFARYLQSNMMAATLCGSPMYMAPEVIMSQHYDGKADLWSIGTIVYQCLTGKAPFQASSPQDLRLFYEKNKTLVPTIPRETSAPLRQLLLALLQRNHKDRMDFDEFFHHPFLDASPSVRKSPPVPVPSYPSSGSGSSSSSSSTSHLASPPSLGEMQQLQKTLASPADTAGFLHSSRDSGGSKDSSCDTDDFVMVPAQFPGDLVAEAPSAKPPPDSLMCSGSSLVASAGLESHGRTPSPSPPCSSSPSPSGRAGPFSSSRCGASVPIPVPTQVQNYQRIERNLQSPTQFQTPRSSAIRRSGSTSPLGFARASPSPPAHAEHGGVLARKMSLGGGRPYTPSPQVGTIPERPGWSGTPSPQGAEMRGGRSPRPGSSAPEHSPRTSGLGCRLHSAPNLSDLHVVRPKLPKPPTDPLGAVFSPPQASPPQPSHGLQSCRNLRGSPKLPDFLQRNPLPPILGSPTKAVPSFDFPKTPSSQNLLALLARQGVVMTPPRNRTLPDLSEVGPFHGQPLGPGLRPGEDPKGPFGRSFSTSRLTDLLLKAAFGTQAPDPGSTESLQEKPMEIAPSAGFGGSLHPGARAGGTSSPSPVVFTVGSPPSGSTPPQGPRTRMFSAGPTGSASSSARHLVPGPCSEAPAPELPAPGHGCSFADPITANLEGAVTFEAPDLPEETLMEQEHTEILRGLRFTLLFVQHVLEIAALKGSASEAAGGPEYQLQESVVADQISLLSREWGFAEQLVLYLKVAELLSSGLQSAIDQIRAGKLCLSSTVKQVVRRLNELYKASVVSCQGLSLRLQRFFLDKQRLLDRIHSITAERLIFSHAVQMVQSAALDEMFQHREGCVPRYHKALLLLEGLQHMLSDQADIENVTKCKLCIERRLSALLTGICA
# Description: as §1
# CSNK1D = CSNK1D (Homo sapiens, UniProt P48730)
# Description: as §1
# QSK = molecular target: T1, QSK (Homo sapiens, UniProt Q9Y2K2)
# T1 construct: gene SIK3
# T1 sequence (Q9Y2K2 whole entry): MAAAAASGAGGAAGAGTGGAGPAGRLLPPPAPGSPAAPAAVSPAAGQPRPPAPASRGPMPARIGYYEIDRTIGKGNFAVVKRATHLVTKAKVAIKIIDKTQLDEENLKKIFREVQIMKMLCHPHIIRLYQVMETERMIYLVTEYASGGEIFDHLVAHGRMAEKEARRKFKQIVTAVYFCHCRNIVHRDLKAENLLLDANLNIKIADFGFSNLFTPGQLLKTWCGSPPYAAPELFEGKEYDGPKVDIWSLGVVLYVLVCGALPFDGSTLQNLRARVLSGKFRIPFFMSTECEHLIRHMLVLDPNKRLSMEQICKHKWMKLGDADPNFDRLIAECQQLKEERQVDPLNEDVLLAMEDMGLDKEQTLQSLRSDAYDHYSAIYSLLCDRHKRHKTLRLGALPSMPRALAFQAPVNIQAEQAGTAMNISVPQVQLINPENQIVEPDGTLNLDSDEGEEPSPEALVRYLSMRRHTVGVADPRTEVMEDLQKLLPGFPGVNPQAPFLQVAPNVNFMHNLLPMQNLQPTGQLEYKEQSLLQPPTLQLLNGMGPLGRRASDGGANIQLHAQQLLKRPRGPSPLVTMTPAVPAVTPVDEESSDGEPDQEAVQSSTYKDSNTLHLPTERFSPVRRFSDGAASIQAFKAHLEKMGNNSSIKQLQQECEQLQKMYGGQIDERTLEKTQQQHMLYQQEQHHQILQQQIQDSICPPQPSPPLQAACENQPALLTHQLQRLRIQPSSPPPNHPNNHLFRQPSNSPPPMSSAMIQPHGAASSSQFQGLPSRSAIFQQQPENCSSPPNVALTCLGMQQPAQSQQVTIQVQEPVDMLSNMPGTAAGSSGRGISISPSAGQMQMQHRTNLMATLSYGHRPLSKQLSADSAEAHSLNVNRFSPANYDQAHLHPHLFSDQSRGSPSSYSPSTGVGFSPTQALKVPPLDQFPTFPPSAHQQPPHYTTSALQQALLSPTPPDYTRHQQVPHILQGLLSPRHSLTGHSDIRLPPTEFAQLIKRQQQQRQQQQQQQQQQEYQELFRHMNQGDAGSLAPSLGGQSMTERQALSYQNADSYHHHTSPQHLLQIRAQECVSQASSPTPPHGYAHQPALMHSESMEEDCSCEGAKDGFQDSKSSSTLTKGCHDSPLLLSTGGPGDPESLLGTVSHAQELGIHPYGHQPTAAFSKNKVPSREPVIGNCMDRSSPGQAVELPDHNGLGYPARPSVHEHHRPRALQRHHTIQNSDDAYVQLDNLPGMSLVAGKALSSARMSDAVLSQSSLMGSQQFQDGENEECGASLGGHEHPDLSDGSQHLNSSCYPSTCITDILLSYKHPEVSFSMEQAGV
# Description: as §1
# MEK2 = molecular target: T2, MEK2 (Homo sapiens, UniProt P36507)
# T2 construct: gene MAP2K2
# Description: as §1
# ERK2 = molecular target: T3, ERK2 (Homo sapiens, UniProt P28482)
# T3 construct: gene MAPK1
# T3 sequence (P28482 whole entry): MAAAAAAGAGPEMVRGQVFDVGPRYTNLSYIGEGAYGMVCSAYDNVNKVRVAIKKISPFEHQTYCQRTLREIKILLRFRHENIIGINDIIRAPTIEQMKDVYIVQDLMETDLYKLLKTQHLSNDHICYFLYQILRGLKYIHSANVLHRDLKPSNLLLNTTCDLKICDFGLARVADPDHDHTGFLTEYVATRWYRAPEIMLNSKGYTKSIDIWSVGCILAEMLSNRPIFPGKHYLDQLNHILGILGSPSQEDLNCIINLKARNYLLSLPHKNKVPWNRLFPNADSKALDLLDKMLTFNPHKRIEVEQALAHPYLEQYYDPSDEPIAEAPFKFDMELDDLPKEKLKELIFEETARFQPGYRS
# Description: as §1
# [1] = molecular target: T4, ABL1(Y253F)-phosphorylated (Homo sapiens, UniProt P00519, Y253F)
# T4 construct: phosphorylated
# Description: as §1
# EPHB6 = EPHB6 (Homo sapiens, UniProt O15197)
# Description: as §1
# MAP3K1 = MAP3K1 (Homo sapiens, UniProt Q13233)
# Description: as §1
# KIT = KIT (Homo sapiens, UniProt P10721)
# Description: as §1
# HIPK3 = HIPK3 (Homo sapiens, UniProt Q9H422)
# Description: as §1
# NEK9 = NEK9 (Homo sapiens, UniProt Q8TD19)
# Description: as §1
# PIP5K1A = PIP5K1A (Homo sapiens, UniProt Q99755)
# Description: as §1
# MYO3A = MYO3A (Homo sapiens, UniProt Q8NEV4)
# Description: as §1
# ITK, sequence (Q08881 whole entry): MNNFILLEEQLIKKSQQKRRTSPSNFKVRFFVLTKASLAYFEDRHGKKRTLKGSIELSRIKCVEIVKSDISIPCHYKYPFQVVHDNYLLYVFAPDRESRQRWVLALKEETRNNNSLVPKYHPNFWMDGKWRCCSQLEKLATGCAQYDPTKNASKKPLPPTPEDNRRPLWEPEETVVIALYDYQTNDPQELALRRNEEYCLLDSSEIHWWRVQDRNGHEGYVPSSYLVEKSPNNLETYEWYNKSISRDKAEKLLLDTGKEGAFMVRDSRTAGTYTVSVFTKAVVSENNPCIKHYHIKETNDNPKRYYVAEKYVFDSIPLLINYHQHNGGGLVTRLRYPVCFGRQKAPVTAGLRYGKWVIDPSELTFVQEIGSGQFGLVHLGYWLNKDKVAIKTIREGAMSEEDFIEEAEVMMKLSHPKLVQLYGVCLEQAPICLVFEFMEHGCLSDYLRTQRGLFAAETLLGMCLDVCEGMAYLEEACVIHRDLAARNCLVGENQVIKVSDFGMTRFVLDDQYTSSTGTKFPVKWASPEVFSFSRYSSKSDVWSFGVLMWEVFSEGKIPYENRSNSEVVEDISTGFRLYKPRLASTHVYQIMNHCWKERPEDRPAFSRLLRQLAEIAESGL
smiles,measurement,setting,value
"CNS(=O)(=O)c1ccc(N(C)C)c(Nc2ncnc3cc(OC)c(OC)cc23)c1 [compound 7, 3-((6,7-dimethoxyquinazolin-4-yl)amino)-4-(dimethylamino)-N-methylbenzenesulfonamide]",inhibition at 1 µM,ITK,0%
same,inhibition at 1 µM,SGK3,1%
same,inhibition at 1 µM,TLK2,0%
same,inhibition at 1 µM,PAK4,0%
same,inhibition at 1 µM,CDKL2,0%
same,inhibition at 1 µM,EGFR(S752-I759del),29%
same,inhibition at 1 µM,"KIT(V559D,T670I)",8%
same,inhibition at 1 µM,"KIT(V559D,V654A)",0%
same,inhibition at 1 µM,PRKCE,0%
same,inhibition at 1 µM,BTK,54%
same,inhibition at 1 µM,CSF1R-autoinhibited,39%
same,inhibition at 1 µM,ULK1,18%
same,inhibition at 1 µM,CSNK1D,0%
same,inhibition at 1 µM,QSK,52%
same,inhibition at 1 µM,MEK2,25%
same,inhibition at 1 µM,ERK2,0%
same,inhibition at 1 µM,[1],38%
same,inhibition at 1 µM,EPHB6,15%
same,inhibition at 1 µM,MAP3K1,0%
same,inhibition at 1 µM,KIT,13%
same,inhibition at 1 µM,HIPK3,0%
same,inhibition at 1 µM,NEK9,0%
same,inhibition at 1 µM,PIP5K1A,0%
same,inhibition at 1 µM,MYO3A,0%
